How the values were obtained:
[1] = system: peritoneal macrophages; assay: Nitric oxide release by mouse peritoneal macrophages (Greiss reagent); format: cell-based, C57BL/6 mice; details: in vitro
Method: (§1) Peritoneal macrophages are harvested from C57BL/6 mice 72 hours after intraperitoneal injection of 1.5 ml of 4% protease peptone. The macrophages are then stimulated in vitro with medium alone, 50 ng LPS, or BRM. Measurements of the stimulation are performed with respect to TNF (by ELISA) and NO (by spectrophotometric assay using the Greiss reagent) levels in duplicate experiments.
In vitro synergy of BRM with LPS for nitric oxide (NO) is addressed in the same procedure as above, except NO is determined in the supernatant of the treated macrophages. As above, the assay for NO is spectrophotometric and uses a Greiss reagent.
In vitro synergy of BRM with IFN-γ for NO release is studied, using the same peritoneal mouse macrophages derived from C57BL/6 mice treated as above.

[2] = system: peritoneal macrophages; assay: TNF-α release by mouse peritoneal macrophages (ELISA); format: cell-based, C57BL/6 mice; details: in vitro culture
Method: as §1
In vitro synergy of BRM with IFN-γ for TNF-α release is studied using the same peritoneal mouse macrophages derived from C57BL/6 mice treated as above. […] The same macrophages stimulated with either LPS or IFN-γ release almost 3000 pg/ml of TNF-α.

## IFN-γ: interferon gamma, conventional macrophage activator
[1]
  release of NO by macrophages, stimulus alone: enhanced NO production
[2]
  release of TNF-α: ~3000 pg/mL

— patent US20040198819A1, “Biological response modifier composition and uses thereof” (priority 2001, published 2004)
